Results published in ChEMBL document CHEMBL1158927, “Facilitation of protein biosynthesis by ginsenoside-Rb2 administration in diabetic rats” (1990).

Tests used:
[1] = tested on: Rattus norvegicus; test: Antidiabetic activity against streptozotocin-induced diabetic Wistar rat assessed as increase in serum protein level at 10 mg/day, ip for 6 days by biuret method; assay type: functional
[2] = tested on: Rattus norvegicus; test: Antidiabetic activity against streptozotocin-induced diabetic Wistar rat assessed as increase in incorporation of [14C]leucine in to hepatic nuclear fraction at 10 mg/day, ip measured per mg protein after 3 days (RVb=272+/-8 cpm); assay type: functional
[3] = tested on: Rattus norvegicus; test: Antidiabetic activity against streptozotocin-induced diabetic Wistar rat assessed as increase in incorporation of [14C]leucine into hepatic soluble fraction at 10 mg/day, ip measured per mg protein after 6 days (RVb=227+/-8 cpm); assay type: functional
[4] = tested on: Rattus norvegicus; test: Antidiabetic activity against streptozotocin-induced diabetic Wistar rat assessed as increase in incorporation of [14C]leucine into hepatic soluble fraction at 10 mg/day, ip measured per mg protein after 3 days (RVb=265+/-8 cpm); assay type: functional
[5] = tested on: Rattus norvegicus; test: Antidiabetic activity against streptozotocin-induced diabetic Wistar rat assessed as increase in incorporation of [14C]leucine into hepatic microsomal fraction at 10 mg/day, ip measured per mg protein after 3 days (RVb=555+/-33 cpm); assay type: functional, Liver
[6] = tested on: Rattus norvegicus; test: Antidiabetic activity against streptozotocin-induced diabetic Wistar rat assessed as increase in incorporation of [14C]leucine into hepatic homogenate at 10 mg/day, ip measured per mg protein after 3 days (RVb=401+/-16 cpm); assay type: functional
[7] = tested on: Rattus norvegicus; test: Antidiabetic activity against streptozotocin-induced diabetic Wistar rat assessed as […] in incorporation of [14C]leucine into per mg serum protein at 10 mg/day, ip measured after 3 days (RVb=640+/-50 cpm); assay type: functional
[8] = tested on: Rattus norvegicus; test: Antidiabetic activity against streptozotocin-induced diabetic Wistar rat assessed as decrease in serum glucose level at 10 mg/day, ip for 3 days measured after 6 days (RVb=401+/-10.7 mg/dl); assay type: functional
[9] = tested on: Rattus norvegicus; test: Antidiabetic activity against streptozotocin-induced diabetic Wistar rat assessed as increase in serum protein level at 10 mg/day, ip for 3 days measured after 6 days by biuret method (RVb=4.86+/-0.30 g/dl); assay type: functional
[10] = tested on: Rattus norvegicus; test: Antidiabetic activity against streptozotocin-induced diabetic Wistar rat assessed as increase in serum albumin level at 10 mg/day, ip for 3 days measured after 3 days by BCG method (RVb=3.24+/-0.11 g/dl); assay type: functional
[11] = tested on: Rattus norvegicus; test: Antidiabetic activity against streptozotocin-induced diabetic Wistar rat assessed as increase in serum albumin level at 10 mg/day, ip for 3 days measured after 6 days by BCG method (RVb=3.07+/-0.08 g/dl); assay type: functional
[12] = tested on: Rattus norvegicus; test: Antidiabetic activity against streptozotocin-induced diabetic Wistar rat assessed as increase in incorporation of [14C]leucine into hepatic homogenate at 10 mg/day, ip measured per mg protein after 6 days (RVb=372+/-3 cpm); assay type: functional
[13] = tested on: Rattus norvegicus; test: Antidiabetic activity against streptozotocin-induced diabetic Wistar rat assessed as increase in incorporation of [14C]leucine in to hepatic […] fraction at 10 mg/day, ip measured per mg protein after 3 days (RVb=377+/-10 cpm); assay type: functional
[14] = tested on: Rattus norvegicus; test: Antidiabetic activity against streptozotocin-induced diabetic Wistar rat assessed as decrease in serum glucose level at 10 mg/day, ip for 3 days measured after 3 days (RVb=396+/-18.7 mg/dl); assay type: functional
[15] = tested on: Rattus norvegicus; test: Antidiabetic activity against streptozotocin-induced diabetic Wistar rat assessed as increase in serum protein level at 10 mg/day, ip for 3 days measured after 3 days by biuret method (RVb=5.06+/-0.18 g/dl); assay type: functional
[16] = tested on: Rattus norvegicus; test: Antidiabetic activity against streptozotocin-induced diabetic Wistar rat assessed as increase in incorporation of [14C]leucine into hepatic microsomal fraction at 10 mg/day, ip measured per mg protein after 6 days (RVb=499+/-57 cpm); assay type: functional, Liver
[17] = tested on: Rattus norvegicus; test: Antidiabetic activity against streptozotocin-induced diabetic Wistar rat assessed as increase in incorporation of [14C]leucine into hepatic […] fraction at 10 mg/day, ip measured per mg protein after 6 days (RVb=357+/-14 cpm); assay type: functional
[18] = tested on: Rattus norvegicus; test: Antidiabetic activity against streptozotocin-induced diabetic Wistar rat assessed as increase in incorporation of [14C]leucine in to hepatic nuclear fraction at 10 mg/day, ip measured per mg protein after 6 days (RVb=273+/-8 cpm); assay type: functional
[19] = tested on: Rattus norvegicus; test: Antidiabetic activity against streptozotocin-induced diabetic Wistar rat assessed as […] in incorporation of [14C]leucine into per mg of serum protein at 10 mg/day, ip measured after 6 days (RVb=612+/-40 cpm); assay type: functional

CC(C)=CCC[C@](C)(O[C@@H]1O[C@H](CO[C@@H]2OC[C@H](O)[C@H](O)[C@H]2O)[C@@H](O)[C@H](O)[C@H]1O)[C@H]1CC[C@]2(C)[C@@H]1[C@H](O)C[C@@H]1[C@@]3(C)CC[C@H](O[C@@H]4O[C@H](CO)[C@@H](O)[C@H](O)[C@H]4O[C@@H]4O[C@H](CO)[C@@H](O)[C@H](O)[C@H]4O)C(C)(C)[C@@H]3CC[C@]12C [GINSENOSIDE RB2]
Activity [1]: 17%
Activity [2]: 294 cpm
Activity [3]: 242 cpm
Activity [4]: 287 cpm
Activity [5]: 689 cpm
Activity [6]: 481 cpm
Activity [7]: 921 cpm
Activity [8]: 321 mg/dL
Activity [9]: 5.68 g/dL
Activity [10]: 3.24 g/dL
Activity [11]: 3.39 g/dL
Activity [12]: 424 cpm
Activity [13]: 426 cpm
Activity [14]: 337.2 mg/dL
Activity [15]: 5.11 g/dL
Activity [16]: 737 cpm
Activity [17]: 395 cpm
Activity [18]: 314 cpm
Activity [19]: 699 cpm
